In US20250163054A1, “SUBSTITUTED BICYCLIC HETEROARYL COMPOUNDS USEFUL AS INHIBITORS OF TLR9” (Bristol-Myers Squibb Company, priority 2022, published 2025):

How the values were obtained:
Assay type in all cases: cell-based
[1] = target: T1, human TLR9 (Homo sapiens, UniProt Q9NR96); assay: TLR7/8/9 Inhibition Reporter Assays (TLR9); conditions: HEK-Blue cells overexpressing human TLR9, SEAP reporter, stimulated with TLR9 ligand ODN2006
T1 construct: host or cells: HEK-Blue cells (HEK293-derived reporter line)
T1 sequence (Q9NR96 26-1032): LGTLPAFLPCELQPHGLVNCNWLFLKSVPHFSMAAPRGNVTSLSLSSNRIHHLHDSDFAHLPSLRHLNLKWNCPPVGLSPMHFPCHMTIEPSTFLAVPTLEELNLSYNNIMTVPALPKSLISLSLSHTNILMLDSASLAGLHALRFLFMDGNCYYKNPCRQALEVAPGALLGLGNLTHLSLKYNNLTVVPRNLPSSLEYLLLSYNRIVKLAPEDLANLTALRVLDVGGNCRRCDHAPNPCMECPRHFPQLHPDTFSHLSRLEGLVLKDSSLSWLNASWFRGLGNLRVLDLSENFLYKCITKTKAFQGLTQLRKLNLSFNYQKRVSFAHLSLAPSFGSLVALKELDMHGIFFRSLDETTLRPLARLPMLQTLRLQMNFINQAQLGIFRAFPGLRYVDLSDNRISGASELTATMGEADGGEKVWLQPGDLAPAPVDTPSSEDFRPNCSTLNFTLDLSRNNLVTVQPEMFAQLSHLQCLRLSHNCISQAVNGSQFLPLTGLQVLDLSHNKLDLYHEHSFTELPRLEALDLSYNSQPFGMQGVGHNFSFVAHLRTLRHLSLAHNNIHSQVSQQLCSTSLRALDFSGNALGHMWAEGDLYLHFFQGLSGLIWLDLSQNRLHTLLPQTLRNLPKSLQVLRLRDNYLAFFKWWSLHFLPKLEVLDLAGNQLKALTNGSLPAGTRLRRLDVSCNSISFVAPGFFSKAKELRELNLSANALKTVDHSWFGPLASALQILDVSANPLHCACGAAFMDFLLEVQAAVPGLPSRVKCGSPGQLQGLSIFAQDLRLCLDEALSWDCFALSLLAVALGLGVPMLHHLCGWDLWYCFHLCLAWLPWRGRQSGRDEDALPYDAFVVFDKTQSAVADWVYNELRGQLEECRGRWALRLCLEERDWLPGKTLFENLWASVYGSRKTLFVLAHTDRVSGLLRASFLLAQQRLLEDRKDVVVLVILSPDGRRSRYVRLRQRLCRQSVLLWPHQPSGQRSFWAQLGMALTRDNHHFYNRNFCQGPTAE
Outline: (§1)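 HEK-Blue cells overexpressing human TLR7, TLR8 or TLR9 with NF-κB/AP-1-driven SEAP reporter, pre-treated 60 min with compound ([…]). Stimulated with […] (TLR7), […] (TLR8) or ODN2006 200 nM (TLR9), then 22 h at 37° C; SEAP measured, % inhibition relative to agonist-plus-DMSO and known-inhibitor wells.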

[2] = target: T2, human TLR8 (Homo sapiens, UniProt Q9NR97); assay: TLR7/8/9 Inhibition Reporter Assays (TLR8); conditions: HEK-Blue cells overexpressing human TLR8, SEAP reporter, stimulated with TLR8 ligand R848
T2 construct: host or cells: HEK-Blue cells (HEK293-derived reporter line)
T2 sequence (Q9NR97 27-1041): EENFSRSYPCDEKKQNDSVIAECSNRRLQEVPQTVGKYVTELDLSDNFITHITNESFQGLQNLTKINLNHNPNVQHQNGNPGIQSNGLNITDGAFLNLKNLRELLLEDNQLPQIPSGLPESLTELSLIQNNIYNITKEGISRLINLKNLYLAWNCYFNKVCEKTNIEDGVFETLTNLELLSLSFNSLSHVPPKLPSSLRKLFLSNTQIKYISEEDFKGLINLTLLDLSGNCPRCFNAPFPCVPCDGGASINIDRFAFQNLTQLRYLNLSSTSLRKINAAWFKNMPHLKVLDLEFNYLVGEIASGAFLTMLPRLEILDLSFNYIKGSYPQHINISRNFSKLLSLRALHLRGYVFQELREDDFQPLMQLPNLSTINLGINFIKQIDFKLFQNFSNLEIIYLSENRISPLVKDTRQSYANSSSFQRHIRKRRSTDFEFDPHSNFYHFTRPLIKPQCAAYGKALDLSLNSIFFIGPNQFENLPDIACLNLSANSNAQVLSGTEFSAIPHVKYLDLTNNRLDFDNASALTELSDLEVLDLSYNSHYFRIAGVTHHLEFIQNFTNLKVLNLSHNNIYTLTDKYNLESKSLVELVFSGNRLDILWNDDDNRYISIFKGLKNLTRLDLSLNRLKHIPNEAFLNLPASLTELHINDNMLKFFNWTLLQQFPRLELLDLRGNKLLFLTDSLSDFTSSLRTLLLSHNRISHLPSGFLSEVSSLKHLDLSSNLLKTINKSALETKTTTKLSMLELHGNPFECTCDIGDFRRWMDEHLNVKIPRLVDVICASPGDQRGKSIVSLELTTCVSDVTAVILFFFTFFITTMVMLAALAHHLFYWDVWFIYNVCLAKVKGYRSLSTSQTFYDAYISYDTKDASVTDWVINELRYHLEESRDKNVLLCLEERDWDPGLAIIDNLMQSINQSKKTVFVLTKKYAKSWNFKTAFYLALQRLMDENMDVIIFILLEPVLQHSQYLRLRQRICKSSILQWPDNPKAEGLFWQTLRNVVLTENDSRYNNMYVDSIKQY
Outline: as §1

[3] = target: T3, human TLR7 (Homo sapiens, UniProt Q9NYK1); assay: TLR7/8/9 Inhibition Reporter Assays (TLR7); conditions: HEK-Blue cells overexpressing human TLR7, SEAP reporter, stimulated with TLR7 ligand gardiquimod
T3 construct: host or cells: HEK-Blue cells (HEK293-derived reporter line)
T3 sequence (Q9NYK1 27-1049): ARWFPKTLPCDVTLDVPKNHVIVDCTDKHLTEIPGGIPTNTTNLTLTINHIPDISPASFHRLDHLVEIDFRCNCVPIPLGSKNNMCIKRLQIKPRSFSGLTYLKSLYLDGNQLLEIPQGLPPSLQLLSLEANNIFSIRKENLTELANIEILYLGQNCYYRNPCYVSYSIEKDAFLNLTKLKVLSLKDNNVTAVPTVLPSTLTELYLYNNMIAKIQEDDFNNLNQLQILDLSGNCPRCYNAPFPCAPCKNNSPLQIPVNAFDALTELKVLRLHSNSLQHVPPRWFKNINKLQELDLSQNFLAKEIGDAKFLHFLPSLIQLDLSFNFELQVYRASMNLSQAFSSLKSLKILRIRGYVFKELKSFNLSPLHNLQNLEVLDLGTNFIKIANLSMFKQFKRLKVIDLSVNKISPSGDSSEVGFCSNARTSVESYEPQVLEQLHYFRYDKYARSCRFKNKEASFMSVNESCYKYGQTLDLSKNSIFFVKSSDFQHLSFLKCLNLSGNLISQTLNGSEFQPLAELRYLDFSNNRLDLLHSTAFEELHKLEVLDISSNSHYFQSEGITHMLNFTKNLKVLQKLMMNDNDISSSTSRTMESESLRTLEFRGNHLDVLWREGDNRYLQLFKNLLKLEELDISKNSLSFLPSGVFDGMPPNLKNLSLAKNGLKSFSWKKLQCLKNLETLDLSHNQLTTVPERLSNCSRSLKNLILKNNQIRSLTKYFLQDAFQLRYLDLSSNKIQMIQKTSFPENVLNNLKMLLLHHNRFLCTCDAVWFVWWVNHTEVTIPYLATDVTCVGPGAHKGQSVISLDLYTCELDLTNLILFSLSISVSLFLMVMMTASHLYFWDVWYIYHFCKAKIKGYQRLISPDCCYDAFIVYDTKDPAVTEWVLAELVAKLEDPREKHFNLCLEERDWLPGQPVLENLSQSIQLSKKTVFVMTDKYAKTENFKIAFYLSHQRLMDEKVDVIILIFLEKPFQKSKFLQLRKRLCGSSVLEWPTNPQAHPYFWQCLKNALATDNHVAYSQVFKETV
Outline: as §1

| SMILES | IC50 [1] | IC50 [2] | IC50 [3] |
| --- | --- | --- | --- |
| Cc1nc(-c2ccc(N3CCN(CC4CC4)CC3)cc2)cc2c1nc(-c1ccc(S(C)(=O)=O)cc1)n2C [Example 20, 6-(4-(4-(cyclopropylmethyl)piperazin-1-yl)phenyl)-1,4-dimethyl-2-(4-(methylsulfonyl)phenyl)-1H-imidazo[4,5-c]pyridine] | 360 nM | 12000 nM | 2900 nM |
| Cc1nc(-c2ccc(N3CCN(C(C)C)CC3)cc2)cc2c1nc(-c1ccc(S(C)(=O)=O)cc1)n2C [Example 6, 6-(4-(4-isopropylpiperazin-1-yl)phenyl)-1,4-dimethyl-2-(4-(methylsulfonyl)phenyl)-1H-imidazo[4,5-c]pyridine] | 800 nM | 3000 nM | 3100 nM |
| Cc1nc(-c2ccc(N3CC4(C3)CN(C3COC3)C4)cc2)cc2c1nc(-c1ccc(S(C)(=O)=O)cc1)n2C [Example 107, 1,4-dimethyl-2-(4-(methylsulfonyl)phenyl)-6-(4-(6-(oxetan-3-yl)-2,6-diazaspiro[3.3]heptan-2-yl)phenyl)-1H-imidazo[4,5-c]pyridine] | 980 nM | > 50000 nM | 30000 nM |
| CC(C)N1CCC(N2CCC(c3cc4c(cn3)nc(-c3ccc(S(C)(=O)=O)cc3)n4C)CC2)CC1 [Example 30, 6-(1′-isopropyl-[1,4′-bipiperidin]-4-yl)-1-methyl-2-(4-(methylsulfonyl)phenyl)-1H-imidazo[4,5-c]pyridine] | 1400 nM | > 25000 nM | > 25000 nM |
| Cc1cc(-c2nc3c(C)nc(-c4ccc(N5CCN(C6CCC6)CC5)cc4)cc3n2C)cc(C)n1 [Example 16, 6-(4-(4-cyclobutylpiperazin-1-yl)phenyl)-2-(2,6-dimethylpyridin-4-yl)-1,4-dimethyl-1H-imidazo[4,5-c]pyridine] | 910 nM | > 50000 nM | 2100 nM |
| Cc1cc(-c2nc3c(C)nc(-c4ccc(N5CCN(C(C)C)CC5)cc4)cc3n2C)cc(C)n1 [Example 13, 2-(2,6-dimethylpyridin-4-yl)-6-(4-(4-isopropylpiperazin-1-yl)phenyl)-1,4-dimethyl-1H-imidazo[4,5-c]pyridine] | 410 nM | > 50000 nM | 1900 nM |

Stronger by IC50 [1], values ahead:

| IC50 [1] | IC50 [2] | IC50 [3] | SMILES |
| --- | --- | --- | --- |
| 270 nM | 1700 nM | 3800 nM | Cc1nc(-c2ccc(CN3CCC(N4CCOCC4)CC3)cc2)cc2c1nc(-c1ccc(S(C)(=O)=O)cc1)n2C1CC1 [Example 48, 4-(1-(4-(1-cyclopropyl-4-methyl-2-(4-(methylsulfonyl)phenyl)-1H-imidazo[4,5-c]pyridin-6-yl)benzyl)piperidin-4-yl) morpholine] |
| 180 nM | 2200 nM | 4400 nM | COc1ccc(-c2nc3cnc(-c4ccc(N5CC6(C5)CN(C(C)C)C6)cc4)cc3n2C2CC2)cc1OC [Example 84, 1-cyclopropyl-2-(3,4-dimethoxyphenyl)-6-(4-(6-isopropyl-2,6-diazaspiro[3.3]heptan-2-yl)phenyl)-1H-imidazo[4,5-c]pyridine] |
| 170 nM | 6800 nM | 5500 nM | Cc1nc(-c2ccc(N3CCC4(CC3)CN(CC(C)(C)O)C4)cc2)cc2c1nc(-c1ccc(S(C)(=O)=O)cc1)n2C [Example 91, 1-(7-(4-(1,4-dimethyl-2-(4-(methylsulfonyl)phenyl)-1H-imidazo[4,5-c]pyridin-6-yl)phenyl)-2,7-diazaspiro[3.5]nonan-2-yl)-2-methylpropan-2-ol] |
| 130 nM | > 50000 nM | 7700 nM | Cc1nc(C2CCN(C3CCN(C(C)C)CC3)CC2)cc2c1nc(-c1ccc(S(C)(=O)=O)cc1)n2C [Example 38, 6-(1′-isopropyl-[1,4′-bipiperidin]-4-yl)-1,4-dimethyl-2-(4-(methylsulfonyl)phenyl)-1H-imidazo[4,5-c]pyridine] |
| 120 nM | 3300 nM | 3000 nM | COc1ccc(-c2nc3cnc(-c4ccc(N5C[C@@H]6CN(C(C)C)C[C@@H]6C5)cc4)cc3n2C2CC2)cc1OC [Example 81, 1-cyclopropyl-2-(3,4-dimethoxyphenyl)-6-(4-((3aR,6aS)-5-isopropylhexahydropyrrolo[3,4-c]pyrrol-2(1H)-yl)phenyl)-1H-imidazo[4,5-c]pyridine] |
| 120 nM | 9200 nM | 1300 nM | Cc1nc(-c2ccc(N3CCC(N(C)C)CC3)cc2)cc2c1nc(-c1ccc(S(C)(=O)=O)cc1)n2C [Example 4, 1-(4-(1,4-dimethyl-2-(4-(methylsulfonyl)phenyl)-1H-imidazo[4,5-c]pyridin-6-yl)phenyl)-N,N-dimethylpiperidin-4-amine] |
| 78 nM | 6800 nM | 6200 nM | Cc1nc(-c2ccc(N3CC4(CN(CC(C)(C)O)C4)C3)cc2)cc2c1nc(-c1ccc(S(C)(=O)=O)cc1)n2C [Example 97, 1-(6-(4-(1,4-dimethyl-2-(4-(methylsulfonyl)phenyl)-1H-imidazo[4,5-c]pyridin-6-yl)phenyl)-2,6-diazaspiro[3.3]heptan-2-yl)-2-methylpropan-2-ol] |
